pIC50: −log10 of the molar value.
What follows are compounds tested against human plasma kallikrein (Homo sapiens, UniProt P03952) (assay: Kallikrein inhibition FLINT assay with quenched AMC peptide substrate Z-Gly-Pro-Arg-AMC (end point EP or kinetic KIN reads)). Conditions: kinetic reads at 5 min intervals over 30 min; read-out: Kallikrein (KIN) IC50.
Format: biochemical
How it was run: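 Enzyme and compound were preincubated 30 min before adding 50 μM AMC substrate in pH 7.5 Tris/NaCl/CaCl2/BSA/CHAPS buffer. AMC release was read at 30 min endpoint or every 5 min.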

Chain of human plasma kallikrein (P03952 391-638 limits assumed): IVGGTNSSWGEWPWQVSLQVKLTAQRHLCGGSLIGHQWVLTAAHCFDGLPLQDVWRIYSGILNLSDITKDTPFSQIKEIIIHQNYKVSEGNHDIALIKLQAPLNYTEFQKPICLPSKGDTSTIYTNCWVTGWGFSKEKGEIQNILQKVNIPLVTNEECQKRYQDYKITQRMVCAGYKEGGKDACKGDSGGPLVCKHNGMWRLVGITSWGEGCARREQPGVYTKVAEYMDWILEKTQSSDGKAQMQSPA
Chain of human plasma kallikrein (P03952 20-390 partner limits assumed): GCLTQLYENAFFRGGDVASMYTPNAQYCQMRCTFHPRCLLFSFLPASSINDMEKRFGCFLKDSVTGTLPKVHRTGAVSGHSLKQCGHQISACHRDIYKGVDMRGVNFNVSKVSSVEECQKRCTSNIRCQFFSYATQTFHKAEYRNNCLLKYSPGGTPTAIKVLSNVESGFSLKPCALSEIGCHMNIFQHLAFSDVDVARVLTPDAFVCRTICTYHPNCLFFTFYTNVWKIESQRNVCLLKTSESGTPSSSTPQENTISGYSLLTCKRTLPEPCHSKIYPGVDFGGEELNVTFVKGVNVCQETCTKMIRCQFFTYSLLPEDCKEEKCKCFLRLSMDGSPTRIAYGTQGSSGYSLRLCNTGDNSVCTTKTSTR

Row | pIC50 | Compound
1 | 6.71 | O=C(C1CC1CC(c1ccc(-c2c(-n3cnnn3)ccc(Cl)c2F)c[n+]1[O-])n1cc(-c2ccncc2)cn1)N1CCCC1 (stereo not drawn) [Example P266]
2 | 7.20 | COCC[C@H](c1ccc(-c2c(-n3cnnn3)ccc(Cl)c2F)c[n+]1[O-])n1cc(-c2nn(C(F)F)cc2Cl)cn1 [Example P576]
3 | 7.32 | [O-][n+]1cc(-c2c(-n3cc(C(F)(F)F)nn3)ccc(Cl)c2F)ccc1C(Cc1ccn(C(F)F)n1)n1cc(-c2ncnn2C(F)F)cn1 (single isomer, unassigned) [Example P837]
4 | 7.30 | COC(=O)Nc1ccc(-c2cnn(C(Cc3ccn(C)n3)c3ccc(-c4c(-n5cnnn5)ccc(Cl)c4F)c[n+]3[O-])c2)cc1 (single isomer, unassigned) [Example P329]
5 | 7.93 | [O-][n+]1cc(-c2c(-n3cnnn3)ccc(Cl)c2F)ccc1[C@@H](CCOC(F)F)n1cc(-c2cnnn2C(F)F)cn1 [Example P676]
6 | 7.90 | O=C(c1cnn(CC(c2ccc(-c3c(-n4cnnn4)ccc(Cl)c3F)c[n+]2[O-])n2cc(-c3ccncc3)cn2)c1)N1CCCCC1 (stereo not drawn) [Example P291]
7 | 6.34 | Cn1cc(-c2cnn([C@H](CCOC(F)F)c3ccc(-c4c(-n5cc(C(F)(F)F)nn5)ccc(Cl)c4F)c[n+]3[O-])c2)nn1 [Example P760]
8 | 6.26 | [2H]C([2H])([2H])OC([2H])([2H])CC(c1ccc(-c2c(-n3cc(C(F)(F)F)nn3)ccc(Cl)c2F)c[n+]1[O-])n1cc(-c2ncnn2C)cn1 (single isomer, unassigned) [Example P864]
9 | ~6.42 | [2H]C([2H])([2H])n1ncc(NC(=O)C2CC2)c1-c1cnn(C(CCOC(F)F)c2ccc(-c3c(-n4cc(Cl)nn4)ccc(Cl)c3F)c[n+]2[O-])c1 (single isomer, unassigned) [Example P810]
10 | 7.12 | [O-][n+]1cc(-c2c(-n3cnnn3)ccc(Cl)c2F)ccc1C(Cn1cc2c(n1)COCC2)n1cc(-c2ccnc(C(F)(F)F)c2)cn1 (stereo not drawn) [Example P465]
11 | 7.57 | O=C(O)c1ccc(-c2cnn(C(CN3CCCC3=O)c3ccc(-c4cc(Cl)ccc4-n4cnnn4)c[n+]3[O-])c2)cc1 (stereo not drawn) [Example P163]
12 | 8.28 | COc1ccc(CC(c2ccc(-c3cc(Cl)ccc3-n3cnnn3)c[n+]2[O-])n2cc(-c3ccc(C(=O)O)cc3)cn2)cc1 (stereo not drawn) [Example P64]
13 | 8.60 | O=C(O)c1ccc(-c2cnn(C(Cc3ccn(C(F)F)n3)c3ccc(-c4c(-n5cc(Cl)nn5)ccc(Cl)c4F)c[n+]3[O-])c2)cc1 (single isomer, unassigned) [Example P898]
14 | 6.18 | COC(=O)Nc1ccc(-c2cnn(C(CC3CC3C(N)=O)c3ccc(-c4c(-n5cnnn5)ccc(Cl)c4F)c[n+]3[O-])c2)cc1 (stereo not drawn) [Example P249]
15 | 7.32 | [O-][n+]1ccc(-c2cnn(C(Cc3ccc(F)cc3)c3ccc(-c4c(OC(F)F)ccc(Cl)c4F)c[n+]3[O-])c2)cc1 (single isomer, unassigned) [Example Q19]
16 | 6.58 | COC(=O)Nc1ccc(-c2cnn(C(CC3CCC(C)(C)CC3)c3ccc(-c4c(-n5cnnn5)ccc(Cl)c4F)c[n+]3[O-])c2)cc1 (stereo not drawn) [Example P122]
17 | 7.86 | [O-][n+]1cc(-c2c(-n3cnnn3)ccc(Cl)c2F)ccc1C(Cn1cccn1)n1cc(-c2ccnc(C(F)F)c2)cn1 (stereo not drawn) [Example P318]
18 | 7.84 | NC(=O)c1ccc(-c2cnn(C(CC3CC3)c3ccc(-c4c(-n5cnnn5)ccc(Cl)c4F)c[n+]3[O-])c2)cc1F (single isomer, unassigned) [Example P947]
19 | 7.69 | NC(=O)c1ccc(-c2cnn(C(Cc3ccn(C(F)F)n3)c3ccc(-c4c(-n5cc(Cl)nn5)ccc(Cl)c4F)c[n+]3[O-])c2)cc1F (single isomer, unassigned) [Example P893]
20 | 7.79 | Cc1cc(-c2cnn(C(Cn3cccn3)c3ccc(-c4c(-n5cnnn5)ccc(Cl)c4F)c[n+]3[O-])c2)ccn1 (stereo not drawn) [Example P285]
21 | 7.84 | COCCC(c1ccc(-c2c(-n3cnnn3)ccc(Cl)c2F)c[n+]1[O-])n1cc(-c2ccc(NC(=O)OC)cc2)cn1 (single isomer, unassigned) [Example P84]
22 | 6.83 | [O-][n+]1cc(F)c(-c2cnn(C(CC3CC3)c3ccc(-c4c(-n5cnnn5)ccc(Cl)c4F)c[n+]3[O-])c2)c(Cl)c1 (single isomer, unassigned) [Example P862]
23 | 6.73 | [O-][n+]1cc(-c2c(-n3cc(Cl)nn3)ccc(Cl)c2F)ccc1C(Cn1cc(F)cn1)n1cc(-c2ccnc(C(F)(F)F)c2)cn1 (stereo not drawn) [Example P479]
24 | 7.00 | NC(=O)c1ccc(-c2cnn(C(CC3CC3C(=O)N3CCCCC3)c3ccc(-c4c(C(F)F)ccc(Cl)c4F)c[n+]3[O-])c2)cc1 (stereo not drawn) [Example Q37]
25 | 6.45 | [O-][n+]1cc(-c2c(-n3cc(Cl)nn3)ccc(Cl)c2F)ccc1[C@@H](CCOC(F)F)n1cc(-c2cn(C(F)F)nn2)cn1 [Example P679]
26 | 6.25 | Cc1ncn(-c2cnn([C@H](CCOC(F)F)c3ccc(-c4c(-n5cc(C(F)(F)F)nn5)ccc(Cl)c4F)c[n+]3[O-])c2)n1 [Example P823]
27 | 7.17 | [2H]C([2H])(C[C@H](c1ccc(-c2c(-n3cc(C(F)(F)F)nn3)ccc(Cl)c2F)c[n+]1[O-])n1cc(-c2ncnn2C)cn1)OC(F)F [Example P834]

Row | pIC50 | Compound
28 | ~6.86 | O=C(O)c1ccn(CC(c2ccc(-c3c(-n4cnnn4)ccc(Cl)c3F)c[n+]2[O-])n2cc(-c3ccncc3)cn2)n1 (stereo not drawn) [Example P442]
29 | 7.10 | [O-][n+]1cccc(-c2cnn(C(Cc3ccc(Cl)cc3)c3ccc(-c4cc(Cl)ccc4-n4cnnn4)c[n+]3[O-])c2)c1 (stereo not drawn) [Example P151]
30 | 5.38 | Cn1nncc1-c1cnn([C@@H](Cc2ccc(C(F)(F)F)nc2)c2ccc(-c3c(-n4cc(Cl)nn4)ccc(Cl)c3F)c[n+]2[O-])c1 [Example P773]
31 | 8.37 | O=C(c1ccn(CC(c2ccc(-c3c(-n4cnnn4)ccc(Cl)c3F)c[n+]2[O-])n2cc(-c3cc[n+]([O-])cc3)cn2)n1)N1CCCCC1 (stereo not drawn) [Example P447]
32 | 8.77 | NC(=O)c1ccn(CC(c2ccc(-c3c(-n4cnnn4)ccc(Cl)c3F)c[n+]2[O-])n2cc(-c3ccncc3)cn2)n1 (stereo not drawn) [Example P443]
33 | 6.21 | Cc1nccc(-c2cnn(C(CC3CC3)c3ccc(-c4c(-n5cnnn5)ccc(Cl)c4F)c[n+]3[O-])c2)n1 (stereo not drawn) [Example P368]
34 | 8.08 | Cn1cc(C[C@H](c2ccc(-c3c(-n4cnnn4)ccc(Cl)c3F)c[n+]2[O-])n2cc(-c3ccnc(C(F)(F)F)c3)cn2)nn1 [Example P736]
35 | 7.38 | Cn1nncc1-c1cnn([C@H](CCOC(F)F)c2ccc(-c3c(-n4cc(C(F)(F)F)nn4)ccc(Cl)c3F)c[n+]2[O-])c1 [Example P761]
36 | 8.21 | [O-][n+]1cc(-c2c(-n3cnnn3)ccc(Cl)c2F)ccc1C(Cn1cccn1)n1cc(-c2ccncc2)cn1 (stereo not drawn) [Example P269]
37 | 9.15 | [O-][n+]1ccc(-c2cnn(C(Cc3ccc(F)cc3)c3ccc(-c4c(-n5cnnn5)ccc(Cl)c4F)c[n+]3[O-])c2)cc1 (single isomer, unassigned) [Example P238]
38 | 6.31 | O=C(O)C1CCN(C(=O)C2CC2CC(c2ccc(-c3c(-n4cnnn4)ccc(Cl)c3F)c[n+]2[O-])n2cc(-c3ccccc3)cn2)CC1 (stereo not drawn) [Example P213]
39 | 6.06 | [O-][n+]1cc(-c2c(-n3cnnn3)ccc(Cl)c2F)ccc1C(Cc1ccc(F)cc1)n1cc(-c2cnn(C(F)F)n2)cn1 (single isomer, unassigned) [Example P598]
40 | 8.41 | O=C(O)c1ccc(-c2cnn(C(CN3CCCC3=O)c3ccc(-c4c(C(F)F)ccc(Cl)c4F)c[n+]3[O-])c2)cc1 (single isomer, unassigned) [Example Q14]
41 | 7.72 | [2H]C([2H])([2H])C([2H])([2H])CC(c1ccc(-c2c(-n3cc(Cl)nn3)ccc(Cl)c2F)c[n+]1[O-])n1cc(-c2ccc(C(N)=O)c(F)c2)cn1 (stereo not drawn) [Example P926]
42 | 6.42 | O=C(C1CC1CC(c1ccc(-c2c(-n3cnnn3)ccc(Cl)c2F)c[n+]1[O-])n1cc(-c2ccncc2)cn1)N1CCC(C2CC2)C1 (stereo not drawn) [Example P254]
43 | 6.31 | Cn1ncnc1-c1cnn(C(Cc2nnco2)c2ccc(-c3c(-n4cc(C(F)(F)F)nn4)ccc(Cl)c3F)c[n+]2[O-])c1 (stereo not drawn) [Example P935]
44 | 6.97 | O=C(NC1CC1)c1ccc(-c2cnn(C(CC3CCCCO3)c3ccc(-c4c(-n5cnnn5)ccc(Cl)c4F)c[n+]3[O-])c2)cc1 (single isomer, unassigned) [Example P142]
45 | 8.57 | CCC(c1cc(OC)c(-c2cc(Cl)ccc2-n2cc(C(F)(F)F)nn2)c[n+]1[O-])n1cc(-c2ccc(C(N)=O)c(F)c2)cn1 (single isomer, unassigned) [Example P878]
46 | 9.40 | NC(=O)c1ccc(-c2cnn(C(Cc3ccn(C(F)F)n3)c3ccc(-c4c(-n5cnnn5)ccc(Cl)c4F)c[n+]3[O-])c2)cc1F (single isomer, unassigned) [Example P933]
47 | 9.10 | NC(=O)c1ccc(-c2cnn(C(Cc3ccn(C(F)F)n3)c3ccc(-c4c(C(F)F)ccc(Cl)c4F)c[n+]3[O-])c2)cc1 (single isomer, unassigned) [Example Q69]
48 | 6.42 | [O-][n+]1cc(F)c(-c2cnn(C(CC3CC3)c3ccc(-c4c(-n5cnnn5)ccc(Cl)c4F)c[n+]3[O-])c2)c(Cl)c1 (stereo not drawn) [Example P518]
49 | 7.97 | [O-][n+]1cc(-c2c(-n3cnnn3)ccc(Cl)c2F)ccc1C(Cc1ccc(F)cc1)n1cc(-c2c(Cl)nnn2C(F)F)cn1 (stereo not drawn) [Example P605]
50 | 6.33 | [O-][n+]1cc(-c2c(-n3cnnn3)ccc(Cl)c2F)ccc1[C@@H](CC1CCC1)n1cc(-c2cn(C(F)F)nn2)cn1 [Example P657]
51 | 7.10 | O=C(O)c1ccc(-c2cnn(C(CC(=O)N3CCNCC3)c3ccc(-c4cc(Cl)ccc4-n4cnnn4)c[n+]3[O-])c2)cc1 (stereo not drawn) [Example P90]
52 | 7.99 | NC(=O)c1ccc(-c2cnn([C@H](CCOC(F)F)c3ccc(-c4c(-n5cc(C(F)(F)F)nn5)ccc(Cl)c4F)c[n+]3[O-])c2)cc1F [Example P860]
53 | 6.12 | CCC(c1cc(OC)c(-c2cc(Cl)ccc2C#N)c[n+]1[O-])n1cc(-c2ncnn2C(F)F)cn1 (stereo not drawn) [Example Q54]
54 | 7.51 | [O-][n+]1cc(-c2c(-n3cc(Cl)nn3)ccc(Cl)c2F)ccc1C(Cn1cc(F)cn1)n1cc(-c2ccnc(C(F)(F)F)c2)cn1 (single isomer, unassigned) [Example P480]
